Reference: patent US11517018B2, “Herbicidal composition comprising cinmethylin and saflufenacil” (BASF Agro B.V., priority 2015, dated 2022)
Where “and” joins values, the source holds several entries; their conditions need not be identical. Equal entries are not always repeated.

How the values were obtained:
Format in all cases: in vivo
Sorghum halepense [1] = assay: Greenhouse preemergence herbicidal activity, SORHA; settings: 20 DAT
Experimental: (§1) The test plants have been seeded, separately for each species, in plastic containers in sandy loamy soil containing 5% of organic matter.
(§2) The containers were irrigated gently to promote germination and growth and subsequently covered with transparent plastic hoods until the plants had rooted.
(§3) The plants have been cultivated due to their individual requirements at 10-25° C. and 20-35° C. The plants were irrigated due to their necessity.
(§4) In the following experiments, the herbicidal activity for the individual herbicidal compositions (solo and mixture applications) was assessed 20 days after treatment (DAT).
(§5) The evaluation for the damage on undesired weeds caused by the chemical compositions was carried out using a scale from 0 to 100%, compared to the untreated control plants. Here, 0 means no damage and 100 means complete destruction of the plants.
(§6) E=X+Y−(X·Y/100) where • X=effect in percent using herbicide A at an application rate a; • Y=effect in percent using herbicide B at application rate b; • E=expected effect (in %) of herbicide A+herbicide B at application rates a+b.
(§7) The value E corresponds to the effect (plant damage or injury) which is to be expected if the activity of the individual compounds is additive. If the observed effect is higher than the value E calculated according to the Colby equation, a synergistic effect is present.

Lolium multiflorum [2] = assay: Greenhouse postemergence herbicidal activity, LOLMU; settings: 20 DAT
Experimental: as §1
(§8) For the post emergence treatment, the plants were first grown to the 2 leaf station (GS 12). Here, the herbicidal compositions were suspended or emulsified in water as distribution medium and sprayed using finely distributing nozzels.
as §3, §4, §5, §6, §7

Stellaria media [3] = assay: Greenhouse preemergence herbicidal activity, STEME; settings: 20 DAT
Experimental: as §1, §2, §3, §4, §5, §6, §7

Stellaria media [4] = assay: Greenhouse postemergence herbicidal activity, STEME; settings: 20 DAT
Experimental: as §1, §8, §3, §4, §5, §6, §7

Sorghum halepense [5] = assay: Greenhouse postemergence herbicidal activity, SORHA; settings: herbicide A solo 350 g ai/ha, 20 DAT
Experimental: as §1, §8, §3, §4
The evaluation for the damage on undesired weeds caused by the chemical compositions was carried out using a scale from 0 to 100%, compared to the untreated control plants. Here, 0 means no damage and 100 means complete destruction of the plants. […]
as §7

Polygonum convolvulus = assay: Greenhouse preemergence herbicidal activity, POLCO; settings: 20 DAT
Experimental: as §1, §2, §3, §4, §5, §6, §7

Avena fatua [6] = assay: Greenhouse postemergence herbicidal activity, AVEFA; settings: 20 DAT
Experimental: as §1, §8, §3, §4, §5, §6, §7

Chenopodium album = assay: Greenhouse preemergence herbicidal activity, CHEAL; settings: 20 DAT
Experimental: as §1, §2, §3, §4, §5, §6, §7

Digitaria sanguinalis = assay: Greenhouse postemergence herbicidal activity, DIGSA; settings: 20 DAT
Experimental: as §1, §8, §3, §4, §5, §6, §7

Avena fatua [7] = assay: Greenhouse preemergence herbicidal activity, AVEFA; settings: 20 DAT
Experimental: as §1, §2, §3, §4, §5, §6, §7

Alopecurus myosuroides = assay: Greenhouse preemergence herbicidal activity, ALOMY; settings: 20 DAT
Experimental: as §1, §2, §3, §4, §5, §6, §7

Galium aparine = assay: Greenhouse preemergence herbicidal activity, GALAP; settings: 20 DAT
Experimental: as §1, §2, §3, §4, §5, §6, §7

Abutilon theophrasti = assay: Greenhouse preemergence herbicidal activity, ABUTH; settings: 20 DAT
Experimental: as §1, §2, §3, §4, §5, §6, §7

Geranium dissectum = assay: Greenhouse preemergence herbicidal activity, GERDI; settings: 20 DAT
Experimental: as §1, §2, §3, §4, §5, §6, §7

Papaver rhoeas = assay: Greenhouse preemergence herbicidal activity, PAPRH; settings: 20 DAT
Experimental: as §1, §2, §3, §4, §5, §6, §7

Setaria viridis = assay: Greenhouse preemergence herbicidal activity, SETVI; settings: 20 DAT
Experimental: as §1, §2, §3, §4, §5, §6, §7

Lolium multiflorum [8] = assay: Greenhouse preemergence herbicidal activity, LOLMU; settings: 20 DAT
Experimental: as §1, §2, §3, §4, §5, §6, §7

## Cc1ccccc1CO[C@@H]1C[C@@]2(C(C)C)CC[C@@]1(C)O2 (racemic) [herbicide A, (±)-2-exo-(2-Methylbenzyloxy)-1-methyl-4-isopropyl-7-oxabicyclo[2.2.1]heptane]
Sorghum halepense [1]; herbicide A solo 50 g ai/ha
  herbicidal activity: 95%
Sorghum halepense [1]; herbicide A solo 100 g ai/ha
  herbicidal activity: 98%
Sorghum halepense [1]; herbicide A solo 200 g ai/ha
  herbicidal activity: 98%
Lolium multiflorum [2]; herbicide A solo 43.8 g ai/ha
  herbicidal activity: 0%
Lolium multiflorum [2]; herbicide A solo 62.5 g ai/ha
  herbicidal activity: 0%
Lolium multiflorum [2]; herbicide A solo 87.5 g ai/ha
  herbicidal activity: 0%
Lolium multiflorum [2]; herbicide A solo 125 g ai/ha
  herbicidal activity: 0%
Lolium multiflorum [2]; herbicide A solo 350 g ai/ha
  herbicidal activity: 75%
Stellaria media [3]; herbicide A solo 31.25 g ai/ha
  herbicidal activity: 40%
Stellaria media [3]; herbicide A solo 50 g ai/ha
  herbicidal activity: 20%
Stellaria media [4]; herbicide A solo 43.8 g ai/ha
  herbicidal activity: 0%
Stellaria media [4]; herbicide A solo 62.5 g ai/ha
  herbicidal activity: 25%
Sorghum halepense [5]
  herbicidal activity: 70%
Polygonum convolvulus; herbicide A solo 25 g ai/ha
  herbicidal activity: 0%
Polygonum convolvulus; herbicide A solo 50 g ai/ha
  herbicidal activity: 0%
Polygonum convolvulus; herbicide A solo 62.5 g ai/ha
  herbicidal activity: 0%
Avena fatua [6]; herbicide A solo 43.8 g ai/ha
  herbicidal activity: 25%
Avena fatua [6]; herbicide A solo 87.5 g ai/ha
  herbicidal activity: 30%
Avena fatua [6]; herbicide A solo 350 g ai/ha
  herbicidal activity: 70%
Chenopodium album; CHEAI, herbicide A solo 62.5 g ai/ha
  herbicidal activity: 40%
Chenopodium album; CHEAL, herbicide A solo 125 g ai/ha
  herbicidal activity: 95%
Chenopodium album; CHEAL, herbicide A solo 500 g ai/ha
  herbicidal activity: 85%
Digitaria sanguinalis; herbicide A solo 87.5 g ai/ha
  herbicidal activity: 65%
Digitaria sanguinalis; herbicide A solo 125 g ai/ha
  herbicidal activity: 85%
Avena fatua [7]; herbicide A solo 31.25 g ai/ha
  herbicidal activity: 30%
Avena fatua [7]; herbicide A solo 50 g ai/ha
  herbicidal activity: 0%
Avena fatua [7]; herbicide A solo 100 g ai/ha
  herbicidal activity: 20%
Avena fatua [7]; herbicide A solo 125 g ai/ha
  herbicidal activity: 35%
Avena fatua [7]; herbicide A solo 200 g ai/ha
  herbicidal activity: 50%
Avena fatua [7]; herbicide A solo 250 g ai/ha
  herbicidal activity: 60% and 70%
Avena fatua [7]; herbicide A solo 500 g ai/ha
  herbicidal activity: 80%
Alopecurus myosuroides; herbicide A solo 31.25 g ai/ha
  herbicidal activity: 95%
Alopecurus myosuroides; herbicide A solo 62.5 g ai/ha
  herbicidal activity: 95% and 98%
Galium aparine; herbicide A solo 25 g ai/ha
  herbicidal activity: 0%
Galium aparine; herbicide A solo 50 g ai/ha
  herbicidal activity: 0%
Galium aparine; herbicide A solo 125 g ai/ha
  herbicidal activity: 65%
Galium aparine; herbicide A solo 200 g ai/ha
  herbicidal activity: 30%
Abutilon theophrasti; herbicide A solo 31.25 g ai/ha
  herbicidal activity: 35%
Abutilon theophrasti; herbicide A solo 50 g ai/ha
  herbicidal activity: 0%
Abutilon theophrasti; herbicide A solo 62.5 g ai/ha
  herbicidal activity: 40%
Abutilon theophrasti; herbicide A solo 100 g ai/ha
  herbicidal activity: 0%
Geranium dissectum; herbicide A solo 25 g ai/ha
  herbicidal activity: 50%
Geranium dissectum; herbicide A solo 125 g ai/ha
  herbicidal activity: 80%
Papaver rhoeas; herbicide A solo 25 g ai/ha
  herbicidal activity: 0%
Papaver rhoeas; herbicide A solo 31.25 g ai/ha
  herbicidal activity: 65%
Papaver rhoeas; herbicide A solo 50 g ai/ha
  herbicidal activity: 0%
Setaria viridis; herbicide A solo 31.25 g ai/ha
  herbicidal activity: 95%
Setaria viridis; herbicide A solo 62.5 g ai/ha
  herbicidal activity: 90%
Setaria viridis; herbicide A solo 125 g ai/ha
  herbicidal activity: 95%
Setaria viridis; herbicide A solo 250 g ai/ha
  herbicidal activity: 98%
Lolium multiflorum [8]; herbicide A solo 25 g ai/ha
  herbicidal activity: 50%
Lolium multiflorum [8]; herbicide A solo 62.5 g ai/ha
  herbicidal activity: 30%
Lolium multiflorum [8]; herbicide A solo 100 g ai/ha
  herbicidal activity: 95%
Lolium multiflorum [8]; herbicide A solo 125 g ai/ha
  herbicidal activity: 85%
Lolium multiflorum [8]; herbicide A solo 200 g ai/ha
  herbicidal activity: 98%
Lolium multiflorum [8]; herbicide A solo 250 g ai/ha
  herbicidal activity: 98%
Lolium multiflorum [8]; herbicide A solo 500 g ai/ha
  herbicidal activity: 95%
